Source: ChEMBL document CHEMBL3124888, “Inhibiting the HIV integration process: past, present, and the future” (J Med Chem, 2014)
Converted amounts (≈) assume the structure as drawn.

What was measured:
[1] = Inhibition of HIV1 integrase/LEDGF-75 (unknown origin) interaction
[2] = tested on: Human immunodeficiency virus 1; test: Antiviral activity against HIV-1 by cell-based assay; format: functional, organism-based
[3] = Inhibition of HIV-1 recombinant His6-tagged integrase/human LEDGF-75 interaction expressed in Escherichia coli BL21(DE3) by SDS PAGE analysis
[4] = tested on: Human immunodeficiency virus 1; test: Antiviral activity against HIV-1 harboring integrase Y143C mutant relative to wild type HIV1; format: functional
[5] = tested on: Human immunodeficiency virus 1; test: Antiviral activity against HIV-1 harboring integrase T66R mutant relative to wild type HIV1; format: functional
[6] = Oral bioavailability in rat; format: ADME, organism-based; details: in vivo
[7] = tested on: Human immunodeficiency virus 1; test: Antiviral activity against HIV-1 harboring integrase T97A/Y143C double mutant relative to wild type HIV1; format: functional
[8] = tested on: Human immunodeficiency virus 1; test: Antiviral activity against HIV1 3B infected in human MT4 cells assessed as inhibition of viral infection after 5 days by MTT assay in presence of human serum; format: functional; details: Human immunodeficiency virus 1, 3B, MT4, 120 h
[9] = tested on: Human immunodeficiency virus 1; test: Antiviral activity against HIV-1 harboring integrase N155H mutant relative to wild type HIV1; format: functional
[10] = tested on: Human immunodeficiency virus 1; test: Antiviral activity against HIV-1 harboring integrase T66I/R263K double mutant relative to wild type HIV1; format: functional
[11] = tested on: Human immunodeficiency virus 1; test: Antiviral activity against HIV-1 harboring integrase Q148R mutant relative to wild type HIV1; format: functional
[12] = tested on: Human immunodeficiency virus 1; test: Antiviral activity against HIV-1 harboring integrase T97A/Y143R double mutant relative to wild type HIV1; format: functional
[13] = tested on: Human immunodeficiency virus 1; test: Antiviral activity against HIV-1 harboring integrase E92Q mutant relative to wild type HIV1; format: functional
[14] = tested on: Human immunodeficiency virus 1; test: Antiviral activity against HIV-1 harboring integrase E138K/Q148K double mutant relative to wild type HIV1; format: functional
[15] = tested on: Human immunodeficiency virus 1; test: Antiviral activity against HIV-1 harboring integrase G118R mutant relative to wild type HIV1; format: functional
[16] = tested on: Human immunodeficiency virus 1; test: Antiviral activity against HIV-1 harboring integrase G140S/Q148H double mutant relative to wild type HIV1; format: functional
[17] = tested on: Human immunodeficiency virus 1; test: Antiviral activity against HIV-1 harboring integrase T66I mutant relative to wild type HIV1; format: functional
[18] = tested on: Human immunodeficiency virus 1; test: Antiviral activity against HIV-1 harboring integrase E92Q/N155H double mutant relative to wild type HIV1; format: functional
[19] = tested on: Human immunodeficiency virus 1; test: Antiviral activity against HIV-1 harboring integrase Q148K mutant relative to wild type HIV1; format: functional
[20] = tested on: Human immunodeficiency virus 1; test: Antiviral activity against HIV-1 harboring integrase T97A mutant relative to wild type HIV1; format: functional
[21] = tested on: Human immunodeficiency virus 1; test: Antiviral activity against HIV-1 harboring integrase Y143R mutant relative to wild type HIV1; format: functional
[22] = tested on: Human immunodeficiency virus 1; test: Antiviral activity against HIV-1 harboring integrase G140S/Q148K double mutant relative to wild type HIV1; format: functional
[23] = tested on: Human immunodeficiency virus 1; test: Antiviral activity against HIV-1 harboring integrase E138K/Q148H double mutant relative to wild type HIV1; format: functional
[24] = Tmax in rat; format: ADME, organism-based; details: in vivo
[25] = tested on: Human immunodeficiency virus 1; test: Antiviral activity against HIV-1 harboring integrase E138K mutant relative to wild type HIV1; format: functional
[26] = tested on: Human immunodeficiency virus 1; test: Antiviral activity against HIV-1 harboring integrase G140S mutant relative to wild type HIV1; format: functional
[27] = tested on: Human immunodeficiency virus 1; test: Antiviral activity against HIV-1 harboring integrase Q148H mutant relative to wild type HIV1; format: functional
[28] = Tmax in dog; format: ADME, organism-based, Canis lupus familiaris; details: in vivo
[29] = tested on: Human immunodeficiency virus 1; test: Antiviral activity against HIV-1 harboring integrase R263K mutant relative to wild type HIV1; format: functional
[30] = biological target: T1, Human immunodeficiency virus type 1 integrase (Human immunodeficiency virus 1, UniProt Q7ZJM1); test: Inhibition of HIV-1 integrase binding to viral DNA by SPR-based competitive assay
[31] = tested on: Human immunodeficiency virus 1; test: Antiviral activity against HIV-1 3B infected in human C8166 cells assessed as inhibition of viral replication by MTT assay; format: functional, organism-based; details: Human immunodeficiency virus 1, 3B
[32] = Inhibition of HIV-1 His6-tagged integrase/Flag-tagged LEDGF-75 (unknown origin) interaction by AlphaScreen assay
[33] = tested on: Human immunodeficiency virus 1; test: Antiviral activity against HIV-1 NL4-3 infected in human HuT78 cells assessed as inhibition of viral p24 production incubated for 4 days followed by compound washout measured after 48 hrs; format: functional, organism-based; details: Human immunodeficiency virus 1, NL4-3, HuT78
[34] = tested on: Human immunodeficiency virus
[35] = tested on: Human immunodeficiency virus 1; test: Antiviral activity against HIV-1 infected in human MT4 cells assessed as reduction of virus-induced cytopathic effect by MTT assay; format: functional, organism-based; details: Human immunodeficiency virus 1, MT4
[36] = Selectivity index, ratio of CC50 for human MT4 cells to EC50 for HIV-1 infected in human MT4 cells; format: toxicity, cell-based; details: read-out: Ratio CC50/EC50
[37] = tested on: Human immunodeficiency virus 1; test: Antiviral activity against HIV-1 harboring integrase G140C mutant relative to wild type HIV1; format: functional
[38] = tested on: Human immunodeficiency virus 1; test: Antiviral activity against HIV-1 harboring integrase E92V mutant relative to wild type HIV1; format: functional
[39] = biological target: T1, Human immunodeficiency virus type 1 integrase; test: Inhibition of HIV-1 integrase 3'-end processing activity
[40] = biological target: T1, Human immunodeficiency virus type 1 integrase; test: Inhibition of HIV1 integrase strand transfer activity
[41] = biological target: T1, Human immunodeficiency virus type 1 integrase; test: Inhibition of HIV-1 integrase 3'-end processing activity preincubated for 30 mins followed by 5'-end 32P-labeled linear double-stranded oligonucleotide addition
[42] = biological target: T1, Human immunodeficiency virus type 1 integrase; test: Inhibition of HIV-1 integrase strand transfer activity preincubated for 30 mins followed by 5'-end 32P-labeled linear double-stranded oligonucleotide addition

## CCCCc1ncc(/C=C(\Cc2cccs2)C(=O)O)n1Cc1ccc(C(=O)O)cc1 [EPROSARTAN]
[1]
  IC50: 36.9 µM

## CCCC(C(=O)O)c1c(C)nc2ccc(Cl)cc2c1-c1ccccc1 (configuration not stated)
[2]
  EC50: 2.35 µM
[3]
  IC50: 1.37 µM

## COc1cc2c(cc1Cc1cccc(Cl)c1F)c(=O)c(C(=O)O)cn2[C@H](CO)C(C)C
[4]
  fold change (FC): <2
[5]
  fold change (FC): 50
[6]
  bioavailability: 30%
[7]
  fold change (FC): <2
[8]
  EC90: 0.0017 µM
[9]
  fold change (FC): 20
[10]
  fold change (FC): >100
[11]
  fold change (FC): 50
[12]
  fold change (FC): <2
[13]
  fold change (FC): 20
[14]
  fold change (FC): >100
[15]
  fold change (FC): <2
[16]
  fold change (FC): >100
[17]
  fold change (FC): >10
[18]
  fold change (FC): >100
[19]
  fold change (FC): 50
[20]
  fold change (FC): 2
[21]
  fold change (FC): <2
[22]
  fold change (FC): >100
[23]
  fold change (FC): 10
[24]
  Tmax: 30 min
[25]
  fold change (FC): 2
[26]
  fold change (FC): 2
[27]
  fold change (FC): 2
[28]
  Tmax: 30 min
[29]
  fold change (FC): 2

## O=C(CN1CCCC1)Nc1ccc(Cc2ccc(NC(=O)CN3CCCC3)cc2)cc1
[30]
  IC50: 7.29 µM
[31]
  EC50: 17.1 µg/mL (≈ 40.5 µM)

## C=CCN(Cc1ccccc1C(=O)NC(c1ccc(OC)cc1)c1ccc(OC)cc1)Cc1ccc2c(c1C(=O)O)OCO2
[32]
  IC50: 8.1 µM
[33]
  EC50: 29 µM

## CCN1C[C@H](C)n2c(c(O)c3c(=O)n(Cc4ccc(F)c(Cl)c4)nc(C(=O)NC)c32)C1=O
[4]
  fold change (FC): 2
[5]
  fold change (FC): <2
[9]
  fold change (FC): 2
[11]
  fold change (FC): 2
[13]
  fold change (FC): <2
[34]
  T1/2: 1920 min
[15]
  fold change (FC): 2
[16]
  fold change (FC): 10
[18]
  fold change (FC): 2
[19]
  fold change (FC): <2
[21]
  fold change (FC): 2
[22]
  fold change (FC): 2
[25]
  fold change (FC): 2
[26]
  fold change (FC): 2
[27]
  fold change (FC): 2
[29]
  fold change (FC): <2

## C[C@@H]1CCO[C@H]2Cn3cc(C(=O)NCc4ccc(F)cc4F)c(=O)c(O)c3C(=O)N12 [DOLUTEGRAVIR]
[4]
  fold change (FC): <2
[5]
  fold change (FC): <2
[7]
  fold change (FC): <2
[9]
  fold change (FC): <2
[11]
  fold change (FC): <2
[12]
  fold change (FC): <2
[13]
  fold change (FC): 2
[14]
  fold change (FC): >100
[15]
  fold change (FC): 2
[16]
  fold change (FC): <2
[18]
  fold change (FC): 2
[19]
  fold change (FC): <2
[20]
  fold change (FC): <2
[21]
  fold change (FC): <2
[22]
  fold change (FC): <2
[23]
  fold change (FC): 2
[25]
  fold change (FC): 2
[26]
  fold change (FC): <2
[27]
  fold change (FC): <2
[29]
  fold change (FC): 10

## Cc1ccc(-c2c(C(OC(C)(C)C)C(=O)O)cnc3sc(C)cc23)cc1 (configuration not stated)
[35]
  EC50: 0.069 µM
[36]
  selectivity ratio: 1390

## Cc1nnc(C(=O)NC(C)(C)c2nc(C(=O)NCc3ccc(F)cc3)c(O)c(=O)n2C)o1
[4]
  fold change (FC): 2
[5]
  fold change (FC): 2
[7]
  fold change (FC): >100
[9]
  fold change (FC): 20
[10]
  fold change (FC): <2
[11]
  fold change (FC): 20
[12]
  fold change (FC): >100
[13]
  fold change (FC): 2
[14]
  fold change (FC): 10
[34]
  T1/2: > 438 min
[15]
  fold change (FC): 2
[16]
  fold change (FC): >100
[18]
  fold change (FC): 50
[19]
  fold change (FC): 50
[37]
  fold change (FC): >5
[20]
  fold change (FC): 2
[21]
  fold change (FC): 20
[22]
  fold change (FC): >100
[23]
  fold change (FC): <2
[38]
  fold change (FC): >5
[25]
  fold change (FC): 2
[26]
  fold change (FC): 2
[27]
  fold change (FC): 10
[29]
  fold change (FC): <2

## CC(C)c1c(C(=O)Nc2ccccc2)c(-c2ccccc2)c(-c2ccc(F)cc2)n1CC[C@@H](O)C[C@@H](O)CC(=O)O [ATORVASTATIN]
[1]
  IC50: 8.9 µM

## COC(=O)[C@H](COC(=O)/C=C/c1ccc(OC(C)=O)c(OC(C)=O)c1)NC(=O)/C=C/c1ccc(OC(C)=O)c(OC(C)=O)c1
[39]
  IC50: 3 µM
[40]
  IC50: 3 µM

## CCOc1cc(/C=C2\SC(=O)N(CC(=O)c3ccccc3)C2=O)c(Br)cc1OCc1ccc(C(=O)O)cc1
[2]
  EC50: 23.8 µg/mL

## O=C(c1ccccc1)c1ccc(C(c2c(O)c3ccccc3oc2=O)c2c(O)c3ccccc3oc2=O)cc1
[41]
  IC50: 27 µM
[42]
  IC50: 18 µM

## C[C@@](Cc1ccc(O)c(O)c1)(NN)C(=O)O [CARBIDOPA]
[1]
  IC50: 6.54 µM
